± gives the uncertainty stated by the source.
Assay: xn = mol fraction of the nth substance listed

Cc1ccc(C)cc1 + CO
viscosity [mPa·s], 101 kPa
Settings	x1 = 0.0352	x1 = 0.0758	x1 = 0.1233	x1 = 0.1795	x1 = 0.247	x1 = 0.3298	x1 = 0.4336	x1 = 0.5673	x1 = 0.747
293.15 K	0.6087 ± 0.016	0.6353 ± 0.017	0.6635 ± 0.017	0.6929 ± 0.018	0.7227 ± 0.019	0.7509 ± 0.02	0.7731 ± 0.021	0.7803 ± 0.021	0.7526 ± 0.02
298.15 K	0.5596 ± 0.015	0.5732 ± 0.015	0.5877 ± 0.015	0.6031 ± 0.016	0.6191 ± 0.016	0.6348 ± 0.017	0.6483 ± 0.017	0.656 ± 0.017	0.6489 ± 0.017
308.15 K	0.4893 ± 0.013	0.4993 ± 0.013	0.5103 ± 0.013	0.522 ± 0.014	0.5342 ± 0.014	0.5465 ± 0.014	0.558 ± 0.015	0.5669 ± 0.015	0.5649 ± 0.015
318.15 K	0.4296 ± 0.011	0.4369 ± 0.011	0.4449 ± 0.012	0.4536 ± 0.012	0.4628 ± 0.012	0.4725 ± 0.012	0.4823 ± 0.013	0.4899 ± 0.013	0.4933 ± 0.013

O=C(O)CCC(=O)O + CO
viscosity [mPa·s], 101 kPa
Settings	308.15 K	313.15 K	318.15 K	323.15 K
x1 = 0.04258	0.8055 ± 0.021	0.7491 ± 0.02	0.6981 ± 0.018	0.646 ± 0.017
x1 = 0.05573	0.9556 ± 0.025	0.887 ± 0.024	0.8175 ± 0.022	0.7603 ± 0.02

O=C(O)c1ccccc1C(=O)O + CO
viscosity [mPa·s]
Settings	308.15 K	313.15 K	318.15 K	323.15 K
101 kPa, x1 = 0.0453	0.916 ± 0.0078	–	–	0.7018 ± 0.0064
101 kPa, x1 = 0.0538	1.001 ± 0.0084	–	–	0.79 ± 0.007
101 kPa, x1 = 0.0598	1.085 ± 0.009	–	–	0.8526 ± 0.0075
101 kPa, x1 = 0.0666	1.226 ± 0.01	–	–	0.906 ± 0.0083
101.33 kPa, x1 = 0.0453	0.916 ± 0.024	0.8445 ± 0.022	0.777 ± 0.021	0.718 ± 0.019
101.33 kPa, x1 = 0.06	1.085 ± 0.029	1.009 ± 0.027	0.9326 ± 0.025	0.8526 ± 0.023

c1ccc(Nc2ccccc2)cc1 + CO
viscosity [mPa·s]
Settings	298.15 K	303.15 K	308.15 K	313.15 K	318.15 K
101 kPa, x1 = 0.03649	0.814 ± 0.021	0.739 ± 0.019	0.6818 ± 0.017	0.6313 ± 0.016	0.584 ± 0.015
101 kPa, x1 = 0.06942	1.012 ± 0.025	0.9262 ± 0.023	0.8495 ± 0.021	0.7809 ± 0.02	0.7151 ± 0.018
101.33 kPa, x1 = 0.04	0.814 ± 0.0057	0.739 ± 0.0052	0.6818 ± 0.0048	0.6313 ± 0.0044	0.584 ± 0.0041
101.33 kPa, x1 = 0.0694	1.012 ± 0.0071	0.9262 ± 0.0065	0.8495 ± 0.0059	0.7809 ± 0.0055	0.7151 ± 0.005

Cc1ccc(C)cc1 + COC(=O)OC
298.15 K, 101.3 kPa
Settings	viscosity [mPa·s]
x2 = 0.1097	0.592 ± 0.008
x2 = 0.1824	0.591 ± 0.008
x2 = 0.2345	0.59 ± 0.008
x2 = 0.2757	0.589 ± 0.008
x2 = 0.3294	0.586 ± 0.008
x2 = 0.3683	0.586 ± 0.008
x2 = 0.5137	0.588 ± 0.008
x2 = 0.6046	0.588 ± 0.008
x2 = 0.7164	0.59 ± 0.008
x2 = 0.8442	0.587 ± 0.008

Source: the CheMixHub viscosity set
